# From publication PMC5777755, “Functional characterization of a unique cytochrome P450 in Toxoplasma gondii” (Oncotarget, 2017)
# Target: T1, Tg-P450 (Toxoplasma gondii, UniProt S8EQL7)
# T1 construct: gene TGME49_315770; P450 knockout as negative control
# Assay: in situ fluorescence microscopy of resorufin formation (rhodamine filter), knockout control
# Type: cell-based
# Details: 1 uM, 24 h, 37 °C; live tachyzoites in HepG2 cells; strain given as Tg-P450 OE in text, GT1 in figure legend
# T1 sequence (S8EQL7 entry or part of it): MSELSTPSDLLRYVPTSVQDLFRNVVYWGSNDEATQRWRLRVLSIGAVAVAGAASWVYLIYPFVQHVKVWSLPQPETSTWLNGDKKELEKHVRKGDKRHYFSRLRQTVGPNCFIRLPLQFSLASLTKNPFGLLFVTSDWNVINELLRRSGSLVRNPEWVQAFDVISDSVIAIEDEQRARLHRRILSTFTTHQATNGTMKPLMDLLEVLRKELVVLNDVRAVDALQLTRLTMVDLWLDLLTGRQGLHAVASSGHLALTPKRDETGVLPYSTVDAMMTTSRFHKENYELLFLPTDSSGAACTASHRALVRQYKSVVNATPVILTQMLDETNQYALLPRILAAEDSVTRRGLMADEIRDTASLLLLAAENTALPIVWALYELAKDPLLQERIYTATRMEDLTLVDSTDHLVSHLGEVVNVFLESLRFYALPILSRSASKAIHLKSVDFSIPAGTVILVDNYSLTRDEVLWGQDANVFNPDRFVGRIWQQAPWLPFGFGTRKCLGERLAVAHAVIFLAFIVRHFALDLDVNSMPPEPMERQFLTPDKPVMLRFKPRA
row,SMILES,"in situ fluorescence microscopy of resorufin formation (rhodamine filter), knock"
1,"O=c1ccc2nc3ccc(OCc4ccccc4)cc3oc-2c1 [BR, benzoxyresorufin]","After treating the P450 knockout parasites with PR and BR, no fluorescence was observed"
2,"CCCCCOc1ccc2nc3ccc(=O)cc-3oc2c1 [PR, pentoxyresorufin]",a weak specific fluorescence signal was visible in the Tg-P450 OE strain
